Data as given in publication PMC3765847, “A polybromodiphenyl ether from an Indonesian marine sponge Lamellodysideaherbacea and its chemical derivatives inhibit protein tyrosine phosphatase 1B, an important target for diabetes treatment” (Journal of Natural Medicines, 2012).

Experiments:
[1] = molecular target: T1, protein tyrosine phosphatase 1B (PTP1B) (Homo sapiens, UniProt P18031); assay: PTP1B inhibitory assay (pNPP hydrolysis); type: biochemical; details: pNPP substrate, pH 6.0, 37 °C, 30 min
T1 sequence (P18031 1-435): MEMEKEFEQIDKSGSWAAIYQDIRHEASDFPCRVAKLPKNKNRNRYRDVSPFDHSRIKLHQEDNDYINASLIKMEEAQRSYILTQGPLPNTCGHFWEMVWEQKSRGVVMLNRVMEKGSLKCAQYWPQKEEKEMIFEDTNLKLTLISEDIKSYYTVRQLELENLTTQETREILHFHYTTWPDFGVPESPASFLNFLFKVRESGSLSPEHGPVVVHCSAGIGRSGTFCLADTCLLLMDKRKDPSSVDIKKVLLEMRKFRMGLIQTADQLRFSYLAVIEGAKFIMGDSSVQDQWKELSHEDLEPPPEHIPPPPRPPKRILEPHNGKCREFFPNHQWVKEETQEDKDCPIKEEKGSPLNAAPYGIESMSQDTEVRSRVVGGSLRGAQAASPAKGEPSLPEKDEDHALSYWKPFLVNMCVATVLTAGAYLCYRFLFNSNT
Procedure: Protein tyrosine phosphatase 1B (PTP1B) inhibitory activity was determined by measuring the rate of hydrolysis of a substrate, p-nitrophenyl phosphate (pNPP, Sigma, St. Louis, MO, USA) according to the published method with a slight modification. Briefly, PTP1B (100 μL of 0.5 μg/mL stock solution, Enzo Life Sciences, Farmingdale, NY, USA) in 50 mM citrate buffer (pH 6.0) containing 0.1 M NaCl, 1 mM dithiothreitol (DTT), and 1 mM N,N,N′,N′-ethylenediamine tetraacetate (EDTA) were added to each well of a 96-well plastic plate (Corning Inc., Corning, NY, USA). […] The reaction was initiated by the addition of pNPP (100 μL of 4.0 mM stock solution) in the citrate buffer, incubated at 37 °C for 30 min, and terminated with the addition of 10 μL of a stop solution (10 M NaOH). The optical density of each well was measured at 405 nm using an MTP-500 microplate reader (Corona Electric Co., Ltd., Ibaraki, Japan). PTP1B inhibitory activity (%) is defined as [1 − (ABSsample − ABSblank)/(ABScontrol − ABSblank)] × 100, where ABSblank is the absorbance of wells containing only the buffer and pNPP, ABScontrol is the absorbance of p-nitrophenol liberated by the enzyme in the assay system without a test sample, and ABSsample is that with a test sample. The assays were performed in two duplicate experiments for all test samples. Oleanolic acid (Tokyo Chemical Industry, Tokyo, Japan), a known phosphatase inhibitor [15], was used as a positive control.

in vitro [2] = type: cell-based; details: human
Procedure: (§1) HCT-15 and Jurkat cells were obtained from the Center for Biomedical Research, Institute of Development, Aging, and Cancer, Tohoku University (Miyagi, Japan). The cell lines were cultured in RPMI-1640 medium. The medium was supplemented with 10 % fetal bovine serum, 100 U/mL penicillin, and 100 μg/mL streptomycin. Exponentially growing cells, cultured in a humidified chamber at 37 °C containing 5.0 % CO2, were used for the experiments. Cytotoxic activity was evaluated using the colorimetric MTT assay. HCT-15 (1.0 × 10^4 cells in 100 μL) or Jurkat cells (2.0 × 10^4 cells in 100 μL) were added to each well of a 96-well plastic plate. A sample (1.0 μL in MeOH) was added to each well to make the final concentrations from 0 to 39–47 μM, and the cells were incubated for 48 h at 37 °C. MTT (10 μL of 5.5 mg/mL stock solution) and a cell lysate solution (90 μL, 40 % N,N-dimethylformamide, 20 % sodium dodecyl sulfate, 2.0 % CH3COOH and 0.030 % HCl) were added to each well, and the plate was shaken thoroughly by agitation at room temperature for overnight. The optical density of each well was measured at 570 nm using an MTP-500 microplate reader.

in vitro [3] = type: cell-based; details: human; remark: listed apart in the source
Procedure: as §1

in vitro [4] = type: cell-based; details: human; remark: listed apart in the source
Procedure: Cytotoxic activity against Huh-7 cells was assessed by the MTT assay, a modification of our previously described method. Following the treatment of cells with test samples, 10 μL of MTT (5.0 mg/mL saline) was added to each well, the samples were incubated for 90 min at 37 °C and centrifuged (300g for 5 min), and the supernatant was aspirated off. The cells were lysed and solubilized by the addition of 100 μL of 0.040 N HCl in 2-propanol. The absorbance of each well was determined at 590 nm using an Inter-med model NJ-2300 Microplate Reader (Cosmo Bio Co., Ltd., Tokyo, Japan). Survival (%) was calculated relative to the control.

| Compound | IC50 [1] [nM] | IC50 at 48 h (in vitro [2]) [nM] | IC50 at 48 h (in vitro [3]) [nM] | IC50 (in vitro [4]) [nM] |
| --- | --- | --- | --- | --- |
| COc1cc(Br)cc(Br)c1Oc1cc(Br)cc(Br)c1OC [Compound 2, 3,5-dibromo-2-(3′,5′-dibromo-2′-methoxyphenoxy)-1-methoxybenzene] | 1700 | > 46000 | > 46000 | 48000 |
| COc1c(Br)cc(Br)cc1Oc1c(Br)cc(Br)cc1OC(=O)c1ccccc1 [Compound 6, 3,5-Dibromo-2-(3′,5′-dibromo-2′-methoxyphenoxy)phenyl benzoate] | 970 |  |  |  |
| COc1c(Br)cc(Br)cc1Oc1c(Br)cc(Br)cc1OC(C)=O [Compound 3, 3,5-dibromo-2-(3′,5′-dibromo-2′-methoxyphenoxy)phenyl ethanoate] | 620 |  |  |  |
| CCCCCC(=O)Oc1cc(Br)cc(Br)c1Oc1cc(Br)cc(Br)c1OC [Compound 5, 3,5-Dibromo-2-(3′,5′-dibromo-2′-methoxyphenoxy)phenyl hexanoate] | 690 |  |  |  |
| COc1c(Br)cc(Br)cc1Oc1c(O)cc(Br)cc1Br [Compound 1, 2-(3′,5′-dibromo-2′-methoxyphenoxy)-3,5-dibromophenol] | 850 |  |  | 32000 |
| CCCC(=O)Oc1cc(Br)cc(Br)c1Oc1cc(Br)cc(Br)c1OC [Compound 4, 3,5-Dibromo-2-(3′,5′-dibromo-2′-methoxyphenoxy)phenyl butanoate] | 680 |  |  |  |
